Calls of active or inactive are those of the source.
Experiments:
[1] = target: Voltage-dependent T-type calcium channel subunit alpha-1H (Homo sapiens, UniProt O95180); format: functional;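 also: channel activity triggered by adding a high calcium stimulation buffer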
[2] = target: T1, Aminopeptidase N (Plasmodium falciparum FcB1/Columbia, UniProt O96935); assay: malaria alanyl aminopeptidase activity blockers – biochemical, fluorogenic H-Leu-NHMec substrate, 1536-well (AID 1445); design: species or system Plasmodium falciparum 3D7, 3D7
T1 sequence (O96935 whole entry): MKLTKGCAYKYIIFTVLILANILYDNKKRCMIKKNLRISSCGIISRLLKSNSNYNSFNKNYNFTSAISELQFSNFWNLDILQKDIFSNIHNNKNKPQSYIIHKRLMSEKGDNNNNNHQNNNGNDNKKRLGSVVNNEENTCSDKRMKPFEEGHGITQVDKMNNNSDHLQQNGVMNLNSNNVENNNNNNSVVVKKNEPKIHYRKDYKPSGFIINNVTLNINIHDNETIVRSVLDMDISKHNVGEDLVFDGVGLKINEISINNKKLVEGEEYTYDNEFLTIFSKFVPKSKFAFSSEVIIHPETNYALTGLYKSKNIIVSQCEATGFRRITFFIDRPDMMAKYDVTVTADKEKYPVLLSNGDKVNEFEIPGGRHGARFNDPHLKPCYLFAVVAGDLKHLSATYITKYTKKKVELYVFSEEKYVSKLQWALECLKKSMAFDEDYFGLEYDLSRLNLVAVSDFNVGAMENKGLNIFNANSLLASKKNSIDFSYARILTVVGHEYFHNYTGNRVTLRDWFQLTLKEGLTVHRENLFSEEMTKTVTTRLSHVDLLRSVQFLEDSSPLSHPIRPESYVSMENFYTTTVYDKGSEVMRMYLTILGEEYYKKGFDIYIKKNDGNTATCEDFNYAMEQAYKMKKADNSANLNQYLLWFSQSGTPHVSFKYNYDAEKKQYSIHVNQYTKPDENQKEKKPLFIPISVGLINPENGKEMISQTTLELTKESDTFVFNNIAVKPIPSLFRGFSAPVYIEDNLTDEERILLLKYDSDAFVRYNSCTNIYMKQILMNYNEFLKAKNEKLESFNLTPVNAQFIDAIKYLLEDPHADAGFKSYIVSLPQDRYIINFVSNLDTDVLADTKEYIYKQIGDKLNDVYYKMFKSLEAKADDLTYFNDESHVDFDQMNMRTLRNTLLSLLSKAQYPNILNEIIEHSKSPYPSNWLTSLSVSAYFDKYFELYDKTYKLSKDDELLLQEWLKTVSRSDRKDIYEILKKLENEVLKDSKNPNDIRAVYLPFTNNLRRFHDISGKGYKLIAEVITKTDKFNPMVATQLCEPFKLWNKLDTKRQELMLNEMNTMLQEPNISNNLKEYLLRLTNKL

[3] = target: T2, Leucine aminopeptidase (Plasmodium falciparum 3D7, UniProt Q8IL11); assay: P. falciparum M17LAP inhibitors, primary screen, biochemical, fluorogenic H-Leu-NHMec substrate, 1536-well (AID 1619); format: functional
T2 sequence (Q8IL11 whole entry): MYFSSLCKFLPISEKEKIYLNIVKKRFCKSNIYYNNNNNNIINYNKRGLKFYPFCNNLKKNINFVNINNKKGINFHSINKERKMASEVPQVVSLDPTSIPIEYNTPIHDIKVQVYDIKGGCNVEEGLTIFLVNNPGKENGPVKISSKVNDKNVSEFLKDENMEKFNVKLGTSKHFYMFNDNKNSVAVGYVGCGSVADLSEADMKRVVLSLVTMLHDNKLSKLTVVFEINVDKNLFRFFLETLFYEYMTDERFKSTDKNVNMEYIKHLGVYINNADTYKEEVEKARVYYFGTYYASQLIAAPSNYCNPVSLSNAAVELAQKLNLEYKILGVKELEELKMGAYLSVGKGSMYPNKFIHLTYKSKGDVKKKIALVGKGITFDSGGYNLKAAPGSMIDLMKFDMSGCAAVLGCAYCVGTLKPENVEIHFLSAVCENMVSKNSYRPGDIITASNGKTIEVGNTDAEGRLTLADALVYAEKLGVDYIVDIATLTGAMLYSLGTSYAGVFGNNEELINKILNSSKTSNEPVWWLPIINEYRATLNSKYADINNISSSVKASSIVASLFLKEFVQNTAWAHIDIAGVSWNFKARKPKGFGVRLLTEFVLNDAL

[4] = HepG2 cell cytotoxicity, dose response, cytotoxicity control for non-replicating M. tuberculosis project (AID 489018); format: functional; settings: Mycobacterium tuberculosis
[5] = THP-1 cell cytotoxicity, dose response, cytotoxicity control for non-replicating M. tuberculosis project (AID 489025); format: functional
[6] = Vero E6 cell cytotoxicity, dose response, cytotoxicity control for non-replicating M. tuberculosis project, secondary assay (AID 492998); format: functional, VeroE6; settings: Vero C1008
[7] = target: Cytochrome P450 2C9 (Homo sapiens, UniProt P11712)
[8] = target: T3, Protein skinhead-1 (Caenorhabditis elegans, UniProt P34707); format: functional
T3 sequence (P34707 whole entry): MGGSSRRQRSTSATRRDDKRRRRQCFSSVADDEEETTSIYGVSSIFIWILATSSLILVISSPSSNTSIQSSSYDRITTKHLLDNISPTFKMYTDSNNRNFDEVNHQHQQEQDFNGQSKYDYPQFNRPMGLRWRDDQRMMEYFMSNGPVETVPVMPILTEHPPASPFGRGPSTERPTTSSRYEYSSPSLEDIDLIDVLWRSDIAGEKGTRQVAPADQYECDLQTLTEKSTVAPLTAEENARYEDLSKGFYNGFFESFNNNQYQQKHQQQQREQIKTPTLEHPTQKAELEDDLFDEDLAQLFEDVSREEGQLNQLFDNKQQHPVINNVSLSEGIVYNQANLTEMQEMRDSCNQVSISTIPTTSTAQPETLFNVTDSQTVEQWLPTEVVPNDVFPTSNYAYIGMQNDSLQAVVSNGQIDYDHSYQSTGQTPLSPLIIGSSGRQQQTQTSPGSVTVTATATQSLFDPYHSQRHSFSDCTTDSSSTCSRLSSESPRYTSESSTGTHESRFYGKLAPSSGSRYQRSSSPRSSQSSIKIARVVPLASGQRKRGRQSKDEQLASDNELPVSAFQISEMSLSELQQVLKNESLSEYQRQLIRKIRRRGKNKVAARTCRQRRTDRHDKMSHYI

[9] = Trypanosoma cruzi growth suppression in host cells – NIH3T3 host cells, beta-gal luminescence, confirmation (AID 2044); format: functional, cell-based;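 also: intracellular parasites grown in NIH/3T3 mouse fibroblasts as host cells; luminescent beta-galactosidase reporter signal from transgenic T. cruzi replicating inside host cells; inhibitors lower the luminescence signal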
[10] = NIH3T3 cell viability loss – ATP luminescence, mouse fibroblasts, counter-screen, dose response (AID 2010); format: functional, cell-based;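 also: cells exposed to compound for about 90 hours before reading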
[11] = cells; format: functional
[12] = target: T4, Streptokinase A (Streptococcus pyogenes serotype M1, UniProt P10520); assay: viability-normalized secreted streptokinase activity reduction – plasminogen activation absorbance, OD405, dose response (AID 1914); format: functional, Streptococcus pyogenes M1 GAS;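 also: secreted streptokinase activity via plasminogen activation per viability signal from cell pellet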
T4 sequence (P10520 whole entry): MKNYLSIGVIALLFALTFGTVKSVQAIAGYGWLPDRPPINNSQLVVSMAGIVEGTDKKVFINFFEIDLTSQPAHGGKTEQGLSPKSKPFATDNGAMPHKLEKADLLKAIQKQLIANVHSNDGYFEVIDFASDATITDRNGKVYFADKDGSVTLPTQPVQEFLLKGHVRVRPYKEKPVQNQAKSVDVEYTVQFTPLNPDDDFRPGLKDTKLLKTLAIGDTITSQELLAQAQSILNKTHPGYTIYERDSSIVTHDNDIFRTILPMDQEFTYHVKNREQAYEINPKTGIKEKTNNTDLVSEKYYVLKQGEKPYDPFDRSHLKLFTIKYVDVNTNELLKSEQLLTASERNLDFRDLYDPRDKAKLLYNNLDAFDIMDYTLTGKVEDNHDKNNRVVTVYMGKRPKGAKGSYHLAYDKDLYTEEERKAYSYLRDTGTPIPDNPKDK

[13] = system: Streptococcus; assay: GAS UMAA2166 growth inhibition – luminescence, BacTiterGlo, counter-screen for streptokinase expression inhibitor project, dose response (AID 1915); format: functional, organism-based;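 also: potency for reduction of bacterial viability or growth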
[14] = system: Streptococcus sp. 'group A'; assay: Streptococcus pyogenes SK(-)GAS viability under kanamycin – luminescence, BacTiterGlo, confirmation, counter-screen for streptokinase expression inhibitor project, dose response (AID 1900); format: functional, organism-based
[15] = microbe, parasite or virus in culture; format: functional; settings: Mycobacterium tuberculosis
[16] = blockers of HIV-1 ZM109 envelope-driven cell-cell fusion – HeLa effector, CEM target cells, luciferase, cherry-pick, dose response (AID 652058); format: functional, cell-based;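 also: luciferase signal from HIV-1 Env mediated cell-cell fusion of effector and target cells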
[17] = blockers of HIV-1 envelope-mediated cell-cell fusion – cherry-pick, dose response (AID 652057); format: functional, cell-based
[18] = HIV-1 AD8 envelope cell-cell fusion blockers – cherry-pick, dose response (AID 652062); format: functional, cell-based;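 also: luciferase signal from cell-cell fusion driven by HIV-1 clade B AD8 Env; potency is for inhibitors of fusion seen as a drop in luminescence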
[19] = Luminescence Cell-Based Dose Retest to Confirm Inhibitors of Cancer Stem Cells. [Related pubchem assays (depositor defined):AID2717, AID2721]; format: functional; settings: Homo sapiens
[20] = target: Cytochrome P450 2C19 (Homo sapiens, UniProt P33261); assay: Cytochrome panel assay with activity outcomes. Panel member name: p450-cyp2c19 Compounds with AC50 equal or less than 10 uM are considered active; format: functional
[21] = target: Large T antigen (Simian virus 40, UniProt P03070); format: functional, Betapolyomavirus macacae;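 also: Confirmatory-stage PubChem screen for compounds that inhibit SV40 T antigen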
[22] = target: T5, Fatty acid synthase (Homo sapiens, UniProt P49327); assay: inhibition of human FAS-TE enzyme activity – biochemical, kinetic fluorescence intensity, dose response (AID 624326); format: functional;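 also: rate of fluorescence rise from hydrolysis of a fluorogenic O-methyl fluorescein ester substrate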
[23] = target: T5, Fatty acid synthase; assay: inhibition of human FAS-TE enzyme activity – biochemical, endpoint fluorescence intensity, uHTS hits, dose response (AID 624327); format: functional;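 also: fluorescence from hydrolysis of an O-methyl fluorescein acyl ester substrate by the enzyme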
[24] = target: T6, Cytochrome P450 1A2 (Homo sapiens, UniProt P05177);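 also: PubChem cytochrome P450 panel assay, CYP1A2 panel member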
T6 sequence (P05177 whole entry): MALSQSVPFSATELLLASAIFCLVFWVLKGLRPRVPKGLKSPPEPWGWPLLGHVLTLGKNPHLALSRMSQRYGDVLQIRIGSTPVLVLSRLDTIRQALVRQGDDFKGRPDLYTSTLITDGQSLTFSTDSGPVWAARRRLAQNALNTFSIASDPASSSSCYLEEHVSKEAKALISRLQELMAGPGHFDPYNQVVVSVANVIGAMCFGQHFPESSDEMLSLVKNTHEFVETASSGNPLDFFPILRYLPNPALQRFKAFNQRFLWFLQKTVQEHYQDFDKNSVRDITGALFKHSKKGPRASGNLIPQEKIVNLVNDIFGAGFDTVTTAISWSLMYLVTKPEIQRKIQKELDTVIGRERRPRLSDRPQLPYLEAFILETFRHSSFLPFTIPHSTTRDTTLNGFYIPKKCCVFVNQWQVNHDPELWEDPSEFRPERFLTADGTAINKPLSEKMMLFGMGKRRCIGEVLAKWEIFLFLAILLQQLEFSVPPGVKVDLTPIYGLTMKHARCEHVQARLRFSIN

Chain of Cytochrome P450 2C9 (P11712 whole entry): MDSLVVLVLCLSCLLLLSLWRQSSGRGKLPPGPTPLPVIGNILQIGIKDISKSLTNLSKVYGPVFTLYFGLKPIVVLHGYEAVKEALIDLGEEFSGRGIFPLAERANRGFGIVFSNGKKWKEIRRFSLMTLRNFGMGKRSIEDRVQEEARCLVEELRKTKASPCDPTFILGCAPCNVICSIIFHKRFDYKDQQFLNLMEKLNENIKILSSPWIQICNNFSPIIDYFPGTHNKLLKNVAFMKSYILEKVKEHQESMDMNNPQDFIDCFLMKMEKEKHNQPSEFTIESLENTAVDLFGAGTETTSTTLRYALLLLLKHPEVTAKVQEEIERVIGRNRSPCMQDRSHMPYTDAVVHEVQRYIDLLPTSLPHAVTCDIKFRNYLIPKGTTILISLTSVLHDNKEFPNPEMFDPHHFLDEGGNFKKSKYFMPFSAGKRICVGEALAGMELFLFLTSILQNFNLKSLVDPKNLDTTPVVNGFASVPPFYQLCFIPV
Chain of Voltage-dependent T-type calcium channel subunit alpha-1H (O95180 whole entry): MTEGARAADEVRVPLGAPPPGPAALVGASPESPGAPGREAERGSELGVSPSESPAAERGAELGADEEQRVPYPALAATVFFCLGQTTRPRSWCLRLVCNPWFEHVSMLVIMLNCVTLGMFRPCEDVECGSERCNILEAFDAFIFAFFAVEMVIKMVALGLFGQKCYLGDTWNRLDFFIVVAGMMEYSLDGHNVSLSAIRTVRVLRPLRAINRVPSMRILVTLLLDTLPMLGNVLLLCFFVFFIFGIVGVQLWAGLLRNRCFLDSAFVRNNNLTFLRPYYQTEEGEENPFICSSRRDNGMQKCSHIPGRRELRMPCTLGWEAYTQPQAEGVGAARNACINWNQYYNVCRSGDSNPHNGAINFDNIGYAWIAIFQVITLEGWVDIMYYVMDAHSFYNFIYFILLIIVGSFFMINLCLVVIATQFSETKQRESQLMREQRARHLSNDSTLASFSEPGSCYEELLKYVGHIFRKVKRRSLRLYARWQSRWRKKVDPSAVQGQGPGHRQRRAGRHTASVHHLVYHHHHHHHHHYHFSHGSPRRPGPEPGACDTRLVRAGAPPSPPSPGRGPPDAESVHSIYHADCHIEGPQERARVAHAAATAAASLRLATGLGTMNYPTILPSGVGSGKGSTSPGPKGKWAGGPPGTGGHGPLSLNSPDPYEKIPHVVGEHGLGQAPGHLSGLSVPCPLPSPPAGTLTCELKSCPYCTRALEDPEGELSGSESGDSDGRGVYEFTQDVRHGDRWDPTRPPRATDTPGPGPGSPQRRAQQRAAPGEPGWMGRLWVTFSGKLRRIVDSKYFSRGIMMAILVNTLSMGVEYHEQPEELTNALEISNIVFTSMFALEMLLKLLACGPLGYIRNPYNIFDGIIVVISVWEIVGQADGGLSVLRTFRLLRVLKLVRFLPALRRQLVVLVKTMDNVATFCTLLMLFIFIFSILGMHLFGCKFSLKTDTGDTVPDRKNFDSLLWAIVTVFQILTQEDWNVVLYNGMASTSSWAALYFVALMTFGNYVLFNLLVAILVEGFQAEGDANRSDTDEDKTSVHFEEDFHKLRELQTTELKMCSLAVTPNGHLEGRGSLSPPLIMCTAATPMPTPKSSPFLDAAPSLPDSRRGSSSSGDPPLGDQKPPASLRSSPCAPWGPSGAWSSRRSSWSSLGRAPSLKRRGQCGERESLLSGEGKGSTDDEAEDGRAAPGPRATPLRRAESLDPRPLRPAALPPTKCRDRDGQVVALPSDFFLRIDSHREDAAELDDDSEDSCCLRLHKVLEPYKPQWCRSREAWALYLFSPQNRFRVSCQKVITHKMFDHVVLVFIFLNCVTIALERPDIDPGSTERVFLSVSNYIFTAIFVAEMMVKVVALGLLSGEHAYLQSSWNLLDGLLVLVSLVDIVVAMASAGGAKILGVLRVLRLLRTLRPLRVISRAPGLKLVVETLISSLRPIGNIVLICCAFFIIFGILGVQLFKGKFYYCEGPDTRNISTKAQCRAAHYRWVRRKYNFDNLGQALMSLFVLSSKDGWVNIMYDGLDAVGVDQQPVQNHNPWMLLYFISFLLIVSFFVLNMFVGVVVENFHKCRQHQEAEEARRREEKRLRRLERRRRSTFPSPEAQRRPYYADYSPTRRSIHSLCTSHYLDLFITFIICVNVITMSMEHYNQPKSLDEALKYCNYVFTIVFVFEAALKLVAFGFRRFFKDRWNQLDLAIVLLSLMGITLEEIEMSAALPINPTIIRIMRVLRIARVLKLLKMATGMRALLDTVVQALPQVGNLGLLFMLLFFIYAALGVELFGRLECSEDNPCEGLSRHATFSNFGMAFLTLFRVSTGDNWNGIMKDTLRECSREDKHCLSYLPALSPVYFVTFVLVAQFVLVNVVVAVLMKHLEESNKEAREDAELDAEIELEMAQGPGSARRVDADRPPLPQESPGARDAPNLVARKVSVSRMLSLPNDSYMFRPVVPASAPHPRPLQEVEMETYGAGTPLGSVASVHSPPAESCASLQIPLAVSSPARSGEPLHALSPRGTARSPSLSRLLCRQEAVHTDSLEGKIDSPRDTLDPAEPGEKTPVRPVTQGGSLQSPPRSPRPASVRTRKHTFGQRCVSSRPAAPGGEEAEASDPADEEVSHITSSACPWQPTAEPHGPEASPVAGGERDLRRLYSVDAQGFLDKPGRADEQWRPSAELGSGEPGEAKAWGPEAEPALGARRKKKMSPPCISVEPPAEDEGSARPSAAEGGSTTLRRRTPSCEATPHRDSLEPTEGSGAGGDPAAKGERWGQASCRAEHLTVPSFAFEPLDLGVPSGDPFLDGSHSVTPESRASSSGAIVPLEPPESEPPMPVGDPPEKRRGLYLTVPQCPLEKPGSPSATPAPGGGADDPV
Chain of Cytochrome P450 2C19 (P33261 whole entry): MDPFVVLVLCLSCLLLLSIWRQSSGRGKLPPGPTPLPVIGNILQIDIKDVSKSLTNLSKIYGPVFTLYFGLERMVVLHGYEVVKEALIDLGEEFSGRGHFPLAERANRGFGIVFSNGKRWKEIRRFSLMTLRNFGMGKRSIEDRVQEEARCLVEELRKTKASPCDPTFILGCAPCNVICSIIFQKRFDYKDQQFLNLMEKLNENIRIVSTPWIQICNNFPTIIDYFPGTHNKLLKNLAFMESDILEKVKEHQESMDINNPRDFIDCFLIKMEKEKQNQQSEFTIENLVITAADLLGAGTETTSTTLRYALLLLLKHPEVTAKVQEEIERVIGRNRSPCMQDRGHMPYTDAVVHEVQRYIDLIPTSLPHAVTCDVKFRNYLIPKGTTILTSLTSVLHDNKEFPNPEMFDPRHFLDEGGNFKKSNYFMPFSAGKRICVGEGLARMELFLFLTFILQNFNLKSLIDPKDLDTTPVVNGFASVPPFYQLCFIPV
Chain of Large T antigen (P03070 whole entry): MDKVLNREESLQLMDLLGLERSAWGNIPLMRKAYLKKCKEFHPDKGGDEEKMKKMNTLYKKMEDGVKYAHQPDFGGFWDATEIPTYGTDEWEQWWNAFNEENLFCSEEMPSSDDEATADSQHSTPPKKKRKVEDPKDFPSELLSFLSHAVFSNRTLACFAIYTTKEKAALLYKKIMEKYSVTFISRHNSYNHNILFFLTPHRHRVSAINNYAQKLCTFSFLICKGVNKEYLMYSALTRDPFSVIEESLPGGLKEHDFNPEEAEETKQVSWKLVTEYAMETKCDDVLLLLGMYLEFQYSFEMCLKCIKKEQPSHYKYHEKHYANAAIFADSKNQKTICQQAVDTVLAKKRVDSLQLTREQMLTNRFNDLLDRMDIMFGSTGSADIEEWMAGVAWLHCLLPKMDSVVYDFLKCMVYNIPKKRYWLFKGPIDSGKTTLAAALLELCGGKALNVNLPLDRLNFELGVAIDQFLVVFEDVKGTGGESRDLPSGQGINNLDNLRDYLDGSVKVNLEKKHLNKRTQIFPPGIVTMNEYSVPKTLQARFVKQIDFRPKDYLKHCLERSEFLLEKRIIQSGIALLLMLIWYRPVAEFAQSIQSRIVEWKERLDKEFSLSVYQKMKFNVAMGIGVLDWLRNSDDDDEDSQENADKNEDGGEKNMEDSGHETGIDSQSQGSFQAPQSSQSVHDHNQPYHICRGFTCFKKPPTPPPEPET

Cc1cccc(C)c1NC(=O)CSc1nnc(-c2ccccc2)n1Cc1ccc2c(c1)OCO2
EC50 [1]: 5.4 µM (active)

COc1ccc(/C=N/NC(=O)CSc2nnc(O)nc2O)cc1
IC50 [2]: 29 µM (active) | IC50 [3]: 7.36 µM (active)

O=S(=O)(c1ccc(Oc2ccc(Cl)cc2)c(S(=O)(=O)N2CCCCC2)c1)N1CCCCC1
EC50 [1]: 2.28 µM (active)

CCCCCCCC(=O)N/N=C(\C)c1ccc(O)cc1O
CC50 [4]: 20 µM (active) | CC50 [5]: 20 µM (active) | CC50 [6]: 12.6 µM (active)

CC(C)NS(=O)(=O)c1ccc(CCC(=O)NCc2ccc3c(c2)OCO3)cc1
IC50 [2]: 33.6 µM (active)

CCn1c(SCC(=O)NC2CCCCC2)nnc1-c1cc2cccc(OC)c2o1
AC50 [7]: inconclusive | IC50 [8]: > 100 µM (inactive)

Cc1c(Cl)cccc1NC(=O)c1nc(C)n(-c2cc(OC(C)C)c(Cl)cc2Cl)n1
EC50 [1]: 7.19 µM (active) | EC50 [9]: 2.77 µM (active) | EC50 [10]: > 60 µM (not active)

Cc1cc(NC(=O)c2sccc2C)n(-c2nc3ccccc3[nH]2)n1
IC50 [11]: 4.09 µM (active) | EC50 [12]: > 150 µM (not active) | CC50 [4]: > 20 µM (active) | EC50 [13]: 5.49 µM (active) | CC50 [5]: > 40 µM (active) | EC50 [14]: 3.9 µM (active) | CC50 [15]: 28.5 µM (active) | CC50 [6]: 12.8 µM (active)

CC(Sc1nnnn1-c1ccccc1)C(=O)Nc1ccc(Cl)cn1 (stereo not given)
EC50 [1]: 6.14 µM (active)

O=C(CSc1nnc(-c2ccc(Cl)cc2)n1Cc1ccco1)NCc1ccc2c(c1)OCO2
EC50 [1]: 1.11 µM (active)

Cn1c(Oc2ccccc2)c(C=O)c2ccccc21
AC50 [7]: inconclusive

C[C@H](CO)N1C[C@H](C)[C@H](CN(C)C(=O)NC2CCCC2)Oc2cc(C#Cc3ccc(F)cc3)ccc2S1(=O)=O
AC50 [16]: 13.2 µM (active) | AC50 [17]: 24.5 µM (active) | AC50 [18]: 24.9 µM (active)

CCC1=NN2C(=N)/C(=C/c3c(C)nn(-c4ccccc4)c3Cl)C(=O)N=C2S1
IC50 [2]: 46.1 µM (active) | AC50 [19]: 78.8 µM (active)

CCn1c(NC(=O)c2nn(C)cc2Br)nc2ccccc21
IC50 [11]: 5.5 µM (active) | CC50 [4]: > 20 µM (active) | CC50 [5]: > 40 µM (active) | CC50 [15]: > 40 µM (active) | CC50 [6]: > 20 µM (active)

Cc1ccc(-c2n[nH]c3c2C(c2cccc(O)c2)N(c2ccc(C(=O)O)cc2)C3=O)cc1 (stereo not given)
IC50 [2]: 36.6 µM (active)

CCC(=O)Nc1cc2c(cc1C(=O)c1ccccc1)OCCO2
AC50 [7]: inconclusive

C[C@@H](NC(=O)/C(C#N)=C/c1ccc(O)c(O)c1)c1ccccc1
AC50 ([20]; read-out: AC50): 39.8 µM (inconclusive) | AC50 [7]: inconclusive | IC50 [21]: 7.28 µM (active)

C=CCn1cc(C(=O)NCc2ccco2)c(=O)c2cc(S(=O)(=O)N3CCCCCC3)ccc21
EC50 [1]: 6.32 µM (active) | IC50 [22]: 7.26 µM (active) | IC50 [23]: 6.69 µM (active)

Nc1nc(S)nc(O)c1/N=N\c1c(Br)cc(S(N)(=O)=O)cc1Br
AC50 [20]: inconclusive | AC50 [7]: inconclusive | AC50 [24]: 3.16 µM (inconclusive)

— ChEMBL document CHEMBL1201862, “PubChem BioAssay data set” (2004)
